According to patent publication US11549123B2, “Plant EPSP synthases and methods of use” (PIONEER HI-BRED INTERNATIONAL, INC., priority 2015, dated 2023):

Columns and labels:
Assay type in all cases: biochemical
[1] = biological target: Zea mays EPSPS variant WT-FS-B (103I 107S 278G 338S) (Zea mays, UniProt O24566, A337S/P106S/T102I/T277G); assay: EPSPS substrate saturation kinetics, WT-FS-B
Method: (§1) EPSPS activity was determined by quantifying the phosphate generated from the EPSPS reaction. Release of inorganic phosphate was coupled to reaction with 2-amino-6-mercapto-7-methylpurine ribonucleoside, catalyzed by purine-nucleoside phosphorylase (M R Webb, Proc. Natl. Acad. Sci. 89:4884-4887, 1992). The absorbance change that occurs was monitored at 360 nm, where the extinction is 11,200 M^−1 cm^−1, with a Spectramax plate reader (Molecular Devices). To determine kinetic parameters, the varied substrate was present at seven concentrations (the eighth being the blank, containing no substrate) ranging from 4 to 400 uM and the unvaried substrate present at saturation. […] Reactions were monitored with a Spectramax plate reader. […] KI was then calculated from the following form of the Michaelis-Menten equation for competitive inhibition: KI=KM[I]/(KM app−KM) KM approximates the dissociation constant of the enzyme-substrate complex while kcat is the rate of conversion of substrate to product when the substrate concentration is saturating. kcat/KM is a widely accepted parameter for catalytic efficiency when substrate concentration is low (˜KM). […] The parameter kcat/KM×KI is used to quantify both catalytic efficiency and insensitivity and thus the overall fitness of the enzyme. […]

[2] = biological target: Sorghum halepense EPSPS, native, SEQ ID NO:8 (Sorghum halepense, UniProt H6T5X2); assay: EPSPS substrate saturation kinetics, native sorghum
Sequence of Sorghum halepense EPSPS, native, SEQ ID NO:8 (H6T5X2 entry or part of it): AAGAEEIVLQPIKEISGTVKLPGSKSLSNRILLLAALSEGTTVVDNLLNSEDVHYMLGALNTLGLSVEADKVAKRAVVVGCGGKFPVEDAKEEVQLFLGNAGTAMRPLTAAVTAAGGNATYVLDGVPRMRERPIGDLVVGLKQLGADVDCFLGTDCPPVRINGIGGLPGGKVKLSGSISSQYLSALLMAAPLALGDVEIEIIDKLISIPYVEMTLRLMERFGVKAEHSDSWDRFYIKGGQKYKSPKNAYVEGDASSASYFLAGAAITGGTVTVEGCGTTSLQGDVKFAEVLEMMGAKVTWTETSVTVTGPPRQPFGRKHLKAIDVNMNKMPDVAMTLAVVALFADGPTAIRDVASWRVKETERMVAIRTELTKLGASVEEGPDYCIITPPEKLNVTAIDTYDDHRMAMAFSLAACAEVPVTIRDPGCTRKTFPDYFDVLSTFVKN
Method: as §1

Bacterial EPSPS (CP4) = Bacterial EPSPS (CP4) (Agrobacterium sp., UniProt Q9R4E4); assay: Rapid two-rate method for (kcat/KM)*KI, bacterial EPSPS (CP4)
Sequence of Bacterial EPSPS (CP4) (Q9R4E4 whole entry): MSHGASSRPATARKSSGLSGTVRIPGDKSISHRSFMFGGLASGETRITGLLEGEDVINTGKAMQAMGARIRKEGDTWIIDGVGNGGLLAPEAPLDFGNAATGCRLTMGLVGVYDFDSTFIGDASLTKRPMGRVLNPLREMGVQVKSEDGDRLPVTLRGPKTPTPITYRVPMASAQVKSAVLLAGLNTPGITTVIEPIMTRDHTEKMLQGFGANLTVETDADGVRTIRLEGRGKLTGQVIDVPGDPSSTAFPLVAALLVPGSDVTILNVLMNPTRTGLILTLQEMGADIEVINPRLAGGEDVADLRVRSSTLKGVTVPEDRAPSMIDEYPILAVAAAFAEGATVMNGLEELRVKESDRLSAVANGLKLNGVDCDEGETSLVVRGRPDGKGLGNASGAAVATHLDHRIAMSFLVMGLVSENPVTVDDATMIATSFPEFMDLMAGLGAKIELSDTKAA
From the text: There are several practical considerations for accurately estimating (kcat/KM)*KI with the rapid method. […] 2) The inhibitor concentration must be adjusted so as to obtain a degree of inhibition that minimally amplifies the error in the term v0-vi in Equation 3. If inhibition is too little, v0-vi will be small, and the error in the multiplier vi×v0/(v0-vi) will be large. […] 3) Substrate concentration should be set at the approximate KM of the parental variant(s), subject to the sensitivity of the assay. High substrate concentration obscures sensitivity to the inhibitor and reduces stringency for capturing improvements in KM. Depending on the necessity for speed, there exists opportunity for customizing enzyme and inhibitor concentrations. […] The rapid method was repeated for those and obtained data that correlated better with data obtained by substrate saturation analysis. For screening purposes however, that correlation step is not necessary. Conditions can be set so that variants with a pre-determined minimal fitness level are accurately quantified.
In Table 15, parameters above the heavy line for the rapid method were obtained under standard conditions. For variants shown below the heavy line, the rapid analysis was repeated with enzyme or glyphosate concentrations adjusted as needed to generate sufficient signal within the limits for linear initial rates.

[3] = PEP as substrate, glyphosate as inhibitor

Sequence of Zea mays EPSPS variant WT-FS-B (103I 107S 278G 338S) (O24566 entry or part of it T102I/P106S/T277G/A337S): as the sequence (H6T5X2 entry or part of it) above, with A1M, N61R, V72A, T103I, P107S, I161V, T278G, Q313E, A338S counted along it

O=C(O)CNCP(=O)(O)O [glyphosate, N-phosphonomethylglycine]
Ki [1]: 552 µM | (kcat/KM)*KI [1, 3]: 1971 | Ki [2]: 0.2 µM | (kcat/KM)*KI [2, 3]: 33 | (kcat/KM)*KI (Bacterial EPSPS (CP4); rapid method repeated, CP4, [E] 0.007 uM, [Gly] 2000 uM): 111800 | (kcat/KM)*KI (Bacterial EPSPS (CP4); rapid method, Bacterial EPSPS, [E] 0.07 uM, [Gly] 1000 uM): 64262
